According to ChEMBL document CHEMBL1149408, “A QSAR model for in silico screening of MAO-A inhibitors. Prediction, synthesis, and biological assay of novel coumarins” (J Med Chem, 2006):

Molecular target: Amine oxidase [flavin-containing] A (Rattus norvegicus) (UniProt P21396)
Experiment: Inhibition of MAO-A activity

Amine oxidase [flavin-containing] A (Rattus norvegicus), sequence (P21396 whole entry, looked up): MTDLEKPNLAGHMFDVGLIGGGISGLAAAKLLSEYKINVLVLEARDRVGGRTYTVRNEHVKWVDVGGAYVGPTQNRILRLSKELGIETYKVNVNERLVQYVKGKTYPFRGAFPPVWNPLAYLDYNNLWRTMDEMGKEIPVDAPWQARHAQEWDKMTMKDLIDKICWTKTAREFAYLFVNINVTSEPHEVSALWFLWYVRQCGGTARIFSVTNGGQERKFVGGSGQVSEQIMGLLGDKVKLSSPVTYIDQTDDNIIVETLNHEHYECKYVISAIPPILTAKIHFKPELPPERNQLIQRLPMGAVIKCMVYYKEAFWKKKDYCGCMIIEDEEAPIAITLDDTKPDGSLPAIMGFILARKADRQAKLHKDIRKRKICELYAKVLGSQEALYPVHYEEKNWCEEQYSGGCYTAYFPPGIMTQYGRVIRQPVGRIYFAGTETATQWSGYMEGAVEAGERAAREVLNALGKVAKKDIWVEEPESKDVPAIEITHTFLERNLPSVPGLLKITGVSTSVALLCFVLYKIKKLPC

SMILES	IC50
COc1c2oc(=O)c(N)cc2cc2c(C)coc12	21.7 µM
Cc1cc(=O)oc2cc(OC3CCCCC3=O)ccc12 (stereo not given)	43 µM
Cc1coc2cc3oc(=O)c(NC(=O)CN)cc3cc12	12.3 µM
NCCCOc1c2occc2cc2ccc(=O)oc12	2.51 µM
Cc1cc(=O)oc2cc(OC3CCCC3=O)ccc12 (stereo not given)	0.04 µM
COc1c(OCC(C)=O)ccc2cc(NC(C)=O)c(=O)oc12	6.43 µM
COc1cc(OC2CCCCC2=O)c2c(C)cc(=O)oc2c1 (stereo not given)	> 200 µM
Cc1cc(=O)oc2cc3oc4c(c3cc12)CCCC4	65.2 µM
Cc1cc(=O)oc2cc3oc4c(c3cc12)CCC4	11.9 µM
CCN(CC)CCCOc1c2occc2cc2ccc(=O)oc12	> 200 µM

The remaining lines, values ahead:

IC50	SMILES
> 200 µM	COc1c(O)ccc2cc(N)c(=O)oc12
21.4 µM	COc1cc(OC2CCCCC2=O)cc2oc(=O)cc(C)c12 (stereo not given)
85.1 µM	COc1c2occc2cc2ccc(=O)oc12 [METHOXSALEN]
11.1 µM	COc1c(OC2CCCCC2=O)ccc2c(C)cc(=O)oc12 (stereo not given)
7.24 µM	Cc1cc(=O)oc2cc3oc4ccccc4c3cc12
